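Step 1: Grow cells in 96-well plates. Step 2: Expose to compound for 48 hours at 5 concentrations. Step 3: Interpolate endpoints linearly; if unreached, use highest concentration. Here, GI50 denotes the concentration required for 50% inhibition of growth. TGI is the concentration that stops growth completely.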
Columns and labels:
Assay in all cases: growth of human tumour cells (NCI), 48 h
MALME-3M melanoma = system: MALME-3M melanoma
HOP-62 NSCLC = system: HOP-62 NSCLC
NCI-H522 lung = system: NCI-H522 lung
U251 CNS = system: U251 CNS
HCC-2998 colon = system: HCC-2998 colon
UACC-257 melanoma = system: UACC-257 melanoma
LOX IMVI melanoma = system: LOX IMVI melanoma
IGROV1 ovarian = system: IGROV1 ovarian
CCRF-CEM leukemia = system: CCRF-CEM leukemia
SK-MEL-2 melanoma = system: SK-MEL-2 melanoma

Row | SMILES | TGI (MALME-3M melanoma) [µM] | TGI (HOP-62 NSCLC) [µM] | TGI (NCI-H522 lung) [µM] | TGI (U251 CNS) [µM] | TGI (HCC-2998 colon) [µM] | TGI (UACC-257 melanoma) [µM] | TGI (LOX IMVI melanoma) [µM] | TGI (IGROV1 ovarian) [µM] | TGI (CCRF-CEM leukemia) [µM] | GI50 (HOP-62 NSCLC) [µM] | GI50 (U251 CNS) [µM] | GI50 (UACC-257 melanoma) [µM] | GI50 (LOX IMVI melanoma) [µM] | GI50 (SK-MEL-2 melanoma) [µM] | TGI (SK-MEL-2 melanoma) [µM] | GI50 (MALME-3M melanoma) [µM] | GI50 (HCC-2998 colon) [µM] | GI50 (IGROV1 ovarian) [µM]
1 | Cc1cc2c(cc1Cl)Sc1n[nH]c(=O)n1S2(=O)=O | > 100 | > 100 | > 100 | > 100 | > 100 | > 100 | > 100 | > 100 | > 100 |  |  |  |  |  |  |  |  | 
2 | Cc1cc(Nc2ccc(Cl)cc2)nc(NCCCNc2ccnc3cc(Cl)ccc23)n1 |  | 3.07 |  | 2.88 |  | 3.39 | 3.18 |  |  | 1.53 | 1.5 | 1.8 | 1.64 | 1.86 | 3.57 |  |  | 
3 | Cc1ncc(CSC(=N)N)n1Cc1ccccc1 | > 100 | > 100 | 64.4 | > 100 |  | > 100 |  | > 100 |  |  |  |  |  |  | > 100 |  |  | 
4 | CCCCCCCc1ccc(-c2nnc(N=Nc3ccc(OCCCCC)cc3)s2)s1 | > 100 | > 100 | > 100 | > 100 | > 100 | > 100 |  | > 100 | > 100 |  |  |  |  |  | > 100 |  |  | 
5 | CC(=O)N1c2cc(N=NN(C)C)ccc2NC(=O)CC1C (stereo not drawn) | > 100 | > 100 | > 100 | > 100 | > 100 | > 100 |  | > 100 | > 100 |  |  |  |  |  | > 100 |  |  | 
6 | O=C(NCc1ccccc1Cl)c1c(O)c2ccccc2[nH]c1=O | > 100 | 41 | > 100 | 40.7 | > 100 | > 100 | > 100 | 67.2 | > 100 |  |  |  |  |  |  |  |  | 
7 | C[n+]1c(-c2ccc(/C=N/NC(=O)C(=O)N/N=C/c3ccc(-c4cn5ccccc5[n+]4C)cc3)cc2)cn2ccccc21 | > 100 | > 100 | > 100 | > 100 | > 100 | > 100 |  | > 100 | > 100 |  |  |  |  |  | > 100 |  |  | 
8 | c1cncc([O][Ge]([O]c2cccnc2)([O]c2cccnc2)[O]c2cccnc2)c1 | > 100 |  |  | > 100 | > 100 | > 100 | > 100 | > 100 |  |  | > 100 | > 100 | 47.1 | > 100 | > 100 | > 100 | > 100 | > 100
9 | S=c1[nH]n2c(COc3cc(Cl)c(OCc4nnc5sc(=S)[nH]n45)cc3Cl)nnc2s1 | > 100 | > 100 | 53.9 | > 100 | > 100 | > 100 | > 100 | > 100 |  |  |  |  |  |  | > 100 |  |  | 
10 | C=CCOC(=O)N1c2ccc(O)cc2[C@@]23O[C@@]24[C@@H]1C#C/C=C\C#C[C@]3(O)C(=O)C[C@@H]4C | > 100 | > 100 | > 100 | > 100 | > 100 | > 100 |  | > 100 | > 100 |  |  |  |  |  | > 100 |  |  | 
11 | COc1cc2c(cc1OC)C(=O)/C(=C/c1ccc(N(C)C)cc1)CC2 | > 10 | > 10 |  | > 10 | > 10 | > 10 | > 10 | > 10 | > 10 |  |  |  |  |  | > 10 |  |  | 

Reference: PubChem BioAssay (NCI)
